{
  "source": "ChEMBL document CHEMBL5236603",
  "about": "“Discovery of mobocertinib, a potent, oral inhibitor of EGFR exon 20 insertion mutations in non-small cell lung cancer” (Bioorg Med Chem Lett, 2023)",
  "key": {"[1]": {"biological_target": "Epidermal growth factor receptor (Homo sapiens, UniProt P00533)", "sequence (P00533 whole entry)": "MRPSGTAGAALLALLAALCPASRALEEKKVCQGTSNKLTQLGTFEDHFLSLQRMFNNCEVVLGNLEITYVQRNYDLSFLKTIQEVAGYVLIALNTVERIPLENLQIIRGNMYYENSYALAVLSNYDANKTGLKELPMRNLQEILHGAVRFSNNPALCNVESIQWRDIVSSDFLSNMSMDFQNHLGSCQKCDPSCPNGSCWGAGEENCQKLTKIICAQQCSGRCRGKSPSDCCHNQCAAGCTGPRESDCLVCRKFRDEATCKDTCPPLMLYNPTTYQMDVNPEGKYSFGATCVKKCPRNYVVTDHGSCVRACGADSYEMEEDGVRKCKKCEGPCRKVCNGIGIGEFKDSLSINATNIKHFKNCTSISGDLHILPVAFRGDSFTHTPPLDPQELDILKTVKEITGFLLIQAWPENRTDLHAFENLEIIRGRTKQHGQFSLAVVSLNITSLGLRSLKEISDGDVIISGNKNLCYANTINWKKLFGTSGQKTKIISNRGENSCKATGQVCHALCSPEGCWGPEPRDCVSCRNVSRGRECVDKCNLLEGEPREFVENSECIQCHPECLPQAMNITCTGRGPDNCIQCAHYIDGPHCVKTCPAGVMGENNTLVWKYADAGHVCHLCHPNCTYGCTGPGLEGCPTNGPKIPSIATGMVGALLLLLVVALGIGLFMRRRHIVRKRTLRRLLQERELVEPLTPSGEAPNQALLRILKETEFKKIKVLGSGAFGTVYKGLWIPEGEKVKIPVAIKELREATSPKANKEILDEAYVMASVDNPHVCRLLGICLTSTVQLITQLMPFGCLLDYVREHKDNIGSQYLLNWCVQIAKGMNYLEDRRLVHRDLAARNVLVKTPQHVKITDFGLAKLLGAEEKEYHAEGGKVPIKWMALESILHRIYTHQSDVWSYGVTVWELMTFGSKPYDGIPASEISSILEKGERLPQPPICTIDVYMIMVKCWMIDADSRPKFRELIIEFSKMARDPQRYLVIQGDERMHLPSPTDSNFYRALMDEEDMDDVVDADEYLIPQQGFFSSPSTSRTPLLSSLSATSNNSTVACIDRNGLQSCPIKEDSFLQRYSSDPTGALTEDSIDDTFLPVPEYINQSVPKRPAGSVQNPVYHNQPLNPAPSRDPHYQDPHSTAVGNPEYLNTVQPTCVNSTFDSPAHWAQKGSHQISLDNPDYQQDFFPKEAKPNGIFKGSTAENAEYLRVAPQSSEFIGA", "test": "Inhibition of […]-induced wild type EGFR phosphorylation in human A-431 cells pretreated for 2 hrs followed by EGF stimulation by immune assay", "format": "cell-based"}, "[2]": {"test_system": "Tyrosine-protein kinase BTK (Homo sapiens), Q06187 [E41K]", "sequence (Q06187 whole entry E41K)": "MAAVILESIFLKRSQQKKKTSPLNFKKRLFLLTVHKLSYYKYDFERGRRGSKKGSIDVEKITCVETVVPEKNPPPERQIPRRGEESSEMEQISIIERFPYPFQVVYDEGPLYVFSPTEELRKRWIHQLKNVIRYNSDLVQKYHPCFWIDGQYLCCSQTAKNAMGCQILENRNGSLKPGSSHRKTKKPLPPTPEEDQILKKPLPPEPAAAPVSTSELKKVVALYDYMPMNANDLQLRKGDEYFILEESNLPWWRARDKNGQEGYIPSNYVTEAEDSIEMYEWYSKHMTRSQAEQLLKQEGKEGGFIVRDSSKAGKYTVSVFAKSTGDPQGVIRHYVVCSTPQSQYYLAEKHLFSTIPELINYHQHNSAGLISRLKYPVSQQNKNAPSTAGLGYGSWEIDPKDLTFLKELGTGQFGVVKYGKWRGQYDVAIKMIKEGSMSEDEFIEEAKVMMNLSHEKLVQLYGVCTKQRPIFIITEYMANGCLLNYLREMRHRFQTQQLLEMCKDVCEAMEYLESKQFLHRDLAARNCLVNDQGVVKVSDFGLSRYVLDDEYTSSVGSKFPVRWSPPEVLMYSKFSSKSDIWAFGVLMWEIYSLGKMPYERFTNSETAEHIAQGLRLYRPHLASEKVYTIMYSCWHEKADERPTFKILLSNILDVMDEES", "test": "Inhibition of human BTK E41K mutant at 1 uM by hotspot assay relative to control"}},
  "note": "pIC50: −log10 of the molar value.",
  "data": [
    {"smiles": "C=CC(=O)Nc1cc(Nc2ncc(C(=O)OC(C)C)c(-c3cn(C)c4ccccc34)n2)c(OC)cc1N(C)CCN(C)C", "note": "[MOBOCERTINIB]", "values": [
      {"measurement": "pIC50", "setting": "[1]", "value": 7.46},
      {"measurement": "inhibition", "setting": "[2]", "value": "> 81", "unit": "%"}
    ]}
  ]
}
